Test results from patent publication US20060240049A1, “Anti-protozoal compositions comprising diclazuril” (priority 2003, published 2006).

Legend:
[1] = in water; cited from earlier work
[2] = Stability of sodium diclazuril in aqueous solution; assay type: physicochemical; settings: degrades into its keto-degradant

stability in an aqueous solution [2]	SMILES	aqueous solubility, saturation concentration [1]
–	N#CC(c1ccc(Cl)cc1)c1c(Cl)cc(-n2ncc(=O)[nH]c2=O)cc1Cl (centres unmarked) [diclazuril]	below 1 μg/L
unstable	N#CC(c1ccc(Cl)cc1)c1c(Cl)cc(-n2ncc(=O)[n-]c2=O)cc1Cl.[Na+] (centres unmarked) [sodium diclazuril]	–
